Assay results from patent US20240215577A1, “FUNGICIDAL PYRIDONES” (FMC Corporation, priority 2021, published 2024).

What was measured:
Type in all cases: in vivo
[1] = test system: Zymoseptoria tritici; test: Test A: wheat leaf blotch, preventive spray on wheat seedlings; details: 100 = 100% disease control, 0 = no control; for pest or weed control at 50 ppm: Zymoseptoria tritici, read-out: Test A disease control rating
Excerpt: (§1) General protocol for preparing test suspensions for Tests A-F: the test compounds were first dissolved in acetone in an amount equal to 3% of the final volume and then suspended at the desired concentration (in ppm) in acetone and purified water (50/50 mix by volume) containing 250 ppm of the surfactant PEG400 (polyhydric alcohol esters). The resulting test suspensions were then used in Tests A-F.
The test solution was sprayed to the point of run-off on wheat seedlings. The following day the seedlings were inoculated with a spore suspension of Zymoseptoria tritici (the causal agent of wheat leaf blotch) and incubated in a saturated atmosphere at 24° C. for 48 h, and then moved to a growth chamber at 20° C. for 17 days, after which time disease ratings were made.
(§2) A rating of 100 indicates 100% disease control and a rating of 0 indicates no disease control (relative to the controls). A dash (-) indicates the compound was not tested.

[2] = test system: Puccinia recondita f. sp. tritici; test: Test B: wheat leaf rust, preventive spray on wheat seedlings; details: 100 = 100% disease control, 0 = no control; for pest or weed control at 50 ppm: Puccinia recondita, read-out: Test B disease control rating
Excerpt: as §1
The test solution was sprayed to the point of run-off on wheat seedlings. The following day the seedlings were inoculated with a spore suspension of Puccinia recondita f. sp. tritici (the causal agent of wheat leaf rust) and incubated in a saturated atmosphere at 20° C. for 24 h, and then moved to a growth chamber at 20° C. for 7 days, after which time visual disease ratings were made.
as §2

[3] = test system: Blumeria graminis f. sp. tritici; test: Test C: wheat powdery mildew, preventive spray on wheat seedlings; details: 100 = 100% disease control, 0 = no control; for pest or weed control at 50 ppm: Blumeria graminis, read-out: Test C disease control rating
Excerpt: as §1
The test suspension was sprayed to the point of run-off on wheat seedlings. The following day the seedlings were inoculated with a spore dust of Blumeria graminis f. sp. tritici, (also known as Eysiphe graminis f. sp. tritici, the causal agent of wheat powdery mildew) and incubated in a growth chamber at 20° C. for 8 days, after which time visual disease ratings were made.
as §2

[4] = test system: Phakopsora pachyrhizi; test: Test D: Asian soybean rust, preventive spray on soybean seedlings; details: 100 = 100% disease control, 0 = no control; for pest or weed control at 50 ppm: Phakopsora pachyrhizi, 216 h, read-out: Test D disease control rating
Excerpt: as §1
The test solution was sprayed to the point of run-off on soybean seedlings. The following day the seedlings were inoculated with a spore suspension of Phakopsora pachyrhizi (the causal agent of Asian soybean rust) and incubated in a saturated atmosphere at 22° C. for 24 h and then moved to a growth chamber at 22° C. for 8 days, after which time visual disease ratings were made.
as §2

[5] = test system: Botrytis cinerea; test: Test E: tomato Botrytis, preventive spray on tomato seedlings; details: 100 = 100% disease control, 0 = no control; for pest or weed control at 50 ppm: Botrytis cinerea, read-out: Test E disease control rating
Excerpt: as §1
The test suspension was sprayed to the point of run-off on tomato seedlings. The following day the seedlings were inoculated with a spore suspension of Botrytis cinerea (the causal agent of tomato Botrytis) and incubated in a saturated atmosphere at 20° C. for 48 h, and then moved to a growth chamber at 24° C. for 3 days, after which time visual disease ratings were made.
as §2

[6] = test system: Alternaria solani; test: Test F: tomato early blight, preventive spray on tomato seedlings; details: 100 = 100% disease control, 0 = no control; for pest or weed control at 50 ppm: Alternaria solani, read-out: Test F disease control rating
Excerpt: as §1
The test suspension was sprayed to the point of run-off on tomato seedlings. The following day the seedlings were inoculated with a spore suspension of Alternaria solani (the causal agent of tomato early blight) and incubated in a saturated atmosphere at 27° C. for 48 h, and then moved to a growth chamber at 20° C. for 3 days, after which time visual disease ratings were made.
as §2

Structure (SMILES)	Test A disease control rating ([1]; 50 ppm) [%]	Test B disease control rating ([2]; 50 ppm) [%]	Test C disease control rating ([3]; 50 ppm) [%]	Test D disease control rating ([4]; 50 ppm) [%]	Test E disease control rating ([5]; 50 ppm) [%]	Test F disease control rating ([6]; 50 ppm) [%]	also measured
CCn1cc(-c2cc(OC)ccc2Cl)c(-c2ccc(F)cc2Cl)c(Cl)c1=O [Compound 75]	97	97	0	0	98	0	
COc1cc(OC)cc(-c2cn(OC)c(=O)c(Cl)c2-c2ccc(F)cc2Cl)c1 [Compound 19, 3-chloro-4-(2-chloro-4-fluorophenyl)-5-(3,5-dimethoxyphenyl)-1-methoxy-2(1H)-pyridinone]							pest or weed control at 50 ppm ([1]; 50 ppm): 58%; pest or weed control at 50 ppm ([2]; 50 ppm): 99%; pest or weed control at 50 ppm ([3]; 50 ppm): 0%; pest or weed control at 50 ppm ([4]; 50 ppm): 11%; pest or weed control at 50 ppm ([5]; 50 ppm): 98%; pest or weed control at 50 ppm ([6]; 50 ppm): 0%
Cn1cc(-c2cc(F)ccc2Cl)c(-c2ccc(F)cc2F)c(Cl)c1=O [Compound 40]	100	100	98	92	94	99	
CCc1c(-c2ccc(F)cc2Cl)c(-c2cc(OC)ccc2Cl)cn(C)c1=O [Compound 47]	81	100	99	51	91	99	
CCOn1cc(-c2cc(OC)cc(OC)c2Cl)c(-c2ccc(F)cc2Cl)c(Cl)c1=O [Compound 46]							Test A disease control rating ([1]; 250 ppm): 99%; Test B disease control rating ([2]; 250 ppm): 100%; Test C disease control rating ([3]; 250 ppm): 92%; Test D disease control rating ([4]; 250 ppm): 99%; Test E disease control rating ([5]; 250 ppm): 88%; Test F disease control rating ([6]; 250 ppm): 47%
COc1ccc(Cl)c(-c2cn(C)c(=O)c(Cl)c2-c2ccc(F)cc2Cl)c1 [Compound 32, 3-chloro-4-(2-chloro-4-fluorophenyl)-5-(2-chloro-5-methoxyphenyl)-1-methyl-2(1H)-pyridinone]							pest or weed control at 50 ppm ([1]; 50 ppm): 100%; pest or weed control at 50 ppm ([2]; 50 ppm): 100%; pest or weed control at 50 ppm ([3]; 50 ppm): 99%; pest or weed control at 50 ppm ([4]; 50 ppm): 99%; pest or weed control at 50 ppm ([5]; 50 ppm): 100%; pest or weed control at 50 ppm ([6]; 50 ppm): 100%
C#CCOn1cc(-c2cc(OC)cc(OC)c2Cl)c(-c2ccc(F)cc2Cl)c(Cl)c1=O [Compound 36, 3-chloro-5-(2-chloro-3,5-dimethoxyphenyl)-4-(2-chloro-4-fluorophenyl)-1-(2-propynyloxy)-2(1H)-pyridinone]							pest or weed control at 50 ppm ([1]; 50 ppm): 98%; pest or weed control at 50 ppm ([2]; 50 ppm): 99%; pest or weed control at 50 ppm ([3]; 50 ppm): 0%; pest or weed control at 50 ppm ([4]; 50 ppm): 96%; pest or weed control at 50 ppm ([5]; 50 ppm): 96%; pest or weed control at 50 ppm ([6]; 50 ppm): 0%
COc1ccc(Cl)c(-c2cn(C)c(=O)cc2-c2cccc(F)c2F)c1 [Compound 65]	8	95	0	0	96	0	
COc1ccc(Cl)c(-c2cn(C)c(=O)c(Cl)c2-c2ccccc2C(F)(F)F)c1 [Compound 57]	98	99	64	44	90	0	
Cn1cc(-c2ccccc2Cl)c(-c2ccc(F)cc2F)c(Cl)c1=O [Compound 48]	99	99	72	77	96	96	
COc1cc(OC)c(Cl)c(-c2cn(OC(F)F)c(=O)c(Cl)c2-c2ccc(F)cc2Cl)c1 [Compound 38, 3-chloro-5-(2-chloro-3,5-dimethoxyphenyl)-4-(2-chloro-4-fluorophenyl)-1-(difluoromethoxy)-2(1H)-pyridinone]							pest or weed control at 50 ppm ([1]; 50 ppm): 96%; pest or weed control at 50 ppm ([2]; 50 ppm): 100%; pest or weed control at 50 ppm ([3]; 50 ppm): 73%; pest or weed control at 50 ppm ([4]; 50 ppm): 75%; pest or weed control at 50 ppm ([5]; 50 ppm): 96%; pest or weed control at 50 ppm ([6]; 50 ppm): 0%
CCCOc1ccc(Cl)c(-c2cn(C)c(=O)c(Cl)c2-c2ccc(F)cc2F)c1 [Compound 10]	99	99	79	0	94	0	
COc1ccc(Cl)c(-c2cn(C)c(=O)cc2-c2ccc(C#N)cc2Cl)c1 [Compound 59]	99	92	0	0	95	0	
Cn1cc(-c2ccc(F)cc2Cl)c(-c2ccc(F)cc2F)c(Cl)c1=O [Compound 42]	100	99	93	73	94	93	
Cc1ccsc1-c1cn(C)c(=O)c(Cl)c1-c1ccc(F)cc1Cl [Compound 63]	84	80	0	0	88	0	
COc1cccc(-c2cn(C)c(=O)c(Cl)c2-c2ccc(F)cc2F)c1 [Compound 8]							Test A disease control rating ([1]; 250 ppm): 100%; Test B disease control rating ([2]; 250 ppm): 100%; Test C disease control rating ([3]; 250 ppm): 98%; Test D disease control rating ([4]; 250 ppm): 81%; Test E disease control rating ([5]; 250 ppm): 99%; Test F disease control rating ([6]; 250 ppm): 99%
COc1ccc(Cl)c(-c2cn(C)c(=O)c(Cl)c2-c2ccccc2Br)c1 [Compound 67]	99		56	73	91	33	
